# From patent US20100081679A1, “DIAMINOPYRIMIDINES AS FUNGICIDES” (Bayer CropScience AG, priority 2007, published 2010)
# Marks after values point to notes of the source that are not given here.
# Test: logP determination via retention times, calibrated with unbranched alkan-2-ones
# Format: physicochemical
# Conditions: HPLC on reversed-phase C 18, EEC Directive 79/831 Annex V.A8; method *: 40° C., 0.1% aqueous formic acid and acetonitrile, linear gradient 10% to 95% acetonitrile
row,logP,Compound
1,1.51*,CC(=O)Nc1cc(Nc2ncc(Br)c(NCC3CC3)n2)ccc1C [compound 468]
2,2.46*,CC1CC(C)CN(c2cccc(Nc3ncc(Cl)c(NC4CC4)n3)c2)C1 (stereo not shown) [compound 528]
3,2.13*,CCC(=O)c1cc(Nc2ncc(Cl)c(NCC3CC3)n2)ccc1O [compound 541]
4,1.99*,CC(C)(CF)C(=O)Nc1cccc(Nc2ncc(Br)c(NCC3CC3)n2)c1 [compound 467]
5,1.66*,CC(=O)N1CCc2ccc(Nc3ncc(Cl)c(NCC4CC4)n3)cc21 [compound 521]
6,2.24*,C#Cc1cccc(Nc2ncc(Cl)c(NC3CC3)n2)c1 [compound 502]

# Same assay, conditions: HPLC on reversed-phase C 18, method **: 43° C.; 0.1% aqueous phosphoric acid and acetonitrile; linear gradient 10% to 95% acetonitrile
row,logP,Compound
1,2.21**,CN(CC1CC1)c1nc(Nc2cccc(N3CCCC3=O)c2)ncc1Cl [compound 964]

# Same assay, conditions: HPLC on reversed-phase C18, method **: 43° C.; mobile phase 0.1% aqueous phosphoric acid and acetonitrile; linear gradient 10% to 95% acetonitrile
row,logP,Compound
1,1.78**,CC(C)NS(=O)(=O)Cc1cccc(Nc2ncc(Cl)c(NC3CC3)n2)c1 [compound 325]

# Same assay, conditions: HPLC on reversed-phase C18, method *: 40° C., 0.1% aqueous formic acid and acetonitrile, linear gradient 10% to 95% acetonitrile
row,Compound,logP
1,COC(=O)Nc1ccc(Nc2ncc(C#N)c(NC3CC3)n2)cc1 [compound 159],1.91*
2,CC(C)(C)Sc1ccc(Nc2ncc(Cl)c(NC3CC3)n2)cc1 [compound 152],3.73*

# Continued, values first:
row,logP,Compound
1,3.9*,FC(F)(F)Sc1ccc(Nc2ncc(Br)c(NC3CC3)n2)cc1 [compound 745]
2,1.66*,NS(=O)(=O)c1cc(Nc2ncc(Cl)c(NC3CC3)n2)ccc1Cl [compound 949]
3,1.51*,CS(=O)(=O)Nc1ccc(Nc2ncc(Cl)c(NCC3CC3)n2)cc1 [compound 697]
4,1.51*,CNS(=O)(=O)Cc1ccc(Nc2ncc(Br)c(NC3CC3)n2)cc1 [compound 757]
5,2.21*,FC(F)Oc1ccc(Nc2ncc(Br)c(NC3CC3)n2)cc1 [compound 748]
6,1.59*,CC[S+]([O-])c1cccc(Nc2ncc(Br)c(NC3CC3)n2)c1 (racemic) [compound 958]
7,4.3*,Clc1cc(Cl)cc(Nc2ncc(Cl)c(NCC3CC3)n2)c1 [compound 690]
8,3.33*,FC(F)(F)c1ccc(Nc2ncc(Cl)c(NCC3CC3)n2)cc1 [compound 684]
9,2.5*,CCCc1ccc(Nc2ncc(Cl)c(NC3CC3)n2)cc1 [compound 953]
10,1.83*,NS(=O)(=O)c1cc(Nc2ncc(Cl)c(NCC3CC3)n2)ccc1Cl [compound 693]
11,1.73*,COCc1cccc(Nc2ncc(C(F)F)c(NCC3CC3)n2)c1 [compound 772]
12,1.53*,CCOC(=O)Nc1ccc(Nc2ncc(Br)c(NC3CC3)n2)cc1O [compound 728]
13,1.75*,Clc1cnc(Nc2ccc3c(c2)OCO3)nc1NCC1CC1 [compound 695]
14,1.97*,O=C(c1ccc(Nc2ncc(Cl)c(NC3CC3)n2)cc1)N1CCCCC1 [compound 723]
15,2.99*,CCC(C)Oc1cc(Nc2ncc(Cl)c(NC3CC3)n2)ccc1C (racemic) [compound 955]
16,2.4*,CCOC(=O)c1cccc(Nc2ncc(Br)c(NC3CC3)n2)c1 [compound 750]
17,2.21*,Clc1cnc(Nc2ccccc2Cc2ccccc2)nc1NC1CC1 [compound 890]
18,1.33*,CN(C)C(=O)c1cccc(Nc2ncc(Cl)c(NC3CC3)n2)c1 [compound 960]
19,3.03*,FC(F)(F)c1cccc(Nc2ncc(Cl)c(NC3CC3)n2)c1 [compound 950]

# Same assay, conditions: HPLC on reversed-phase C18, method *: 40° C.; mobile phase 0.1% aqueous formic acid and acetonitrile; linear gradient 10% to 95% acetonitrile
row,logP,Compound
1,3.44*,FC(F)Oc1cc(Nc2ncc(Br)c(NC3CC3)n2)ccc1Cl [compound 311]
2,2.55*,CO/N=C/c1ccc(Nc2ncc(Br)c(NC3CC3)n2)cc1 [compound 338]
3,1.87*,CCOc1ccc(Nc2ncc(Br)c(NC3CC3)n2)cc1 [compound 308]
4,2.33*,CN(C)S(=O)(=O)c1ccc(Nc2ncc(Br)c(NC3CC3)n2)cc1 [compound 346]
5,3.9*,FC(F)(F)Oc1ccc(Nc2ncc(Cl)c(NC3CC3)n2)cc1Cl [compound 296]
6,3.68*,FC(F)(F)Oc1cccc(Nc2ncc(Br)c(NC3CC3)n2)c1 [compound 301]
7,2.95*,O=C1CCCN1c1cccc(Nc2ncc(Cl)c(NC3(c4ccccc4Cl)CC3)n2)c1 [compound 323]
8,2.68*,CCC(=O)c1ccc(Nc2ncc(Br)c(NC3CC3)n2)cc1 [compound 356]

# Same assay, conditions: HPLC on reversed-phase C18 column (EEC Directive 79/831 Annex V.A8); method *: 40° C.; 0.1% aqueous formic acid and acetonitrile; linear gradient 10% to 95% acetonitrile
row,logP,Compound
1,1.9*,COc1cc(Nc2ncc(Cl)c(NC3CC3)n2)ccc1F [compound 259]
2,2.33*,O=C1CCCN1c1cc(Nc2ncc(C(F)(F)F)c(NC3CC3)n2)ccc1F [compound 265]
3,1.99*,CCC(=O)c1cc(Nc2ncc(Cl)c(NC3CC3)n2)ccc1O [compound 250]
4,2.43*,CC(=O)c1cc(Nc2ncc(Cl)c(NC3CC3)n2)ccc1Cl [compound 249]
5,1.51*,O=S1(=O)Cc2ccc(Nc3ncc(Cl)c(NC4CC4)n3)cc2C1 [compound 245]

# Same assay, conditions: HPLC reversed-phase C 18, EEC Directive 79/831 Annex V.A8; method *: 40° C., 0.1% aqueous formic acid and acetonitrile, linear gradient 10% to 95% acetonitrile
row,logP,Compound
1,2.56*,Brc1cnc(Nc2ccccc2)nc1NC1CC1 [compound 836]
2,1.57*,O=C(c1cccc(Nc2ncc(Cl)c(NC3CC3)n2)c1)N1CCCC1 [compound 848]
3,2.18*,Brc1cnc(Nc2ccccc2)nc1NCCC1CC1 [compound 809]
4,1.87*,N#CCc1cc(Nc2ncc(Cl)c(NCC3CC3)n2)ccc1F [compound 816]
5,1.16*,O=C1CCCCN1c1cccc(Nc2ncc(F)c(NC3CC3)n2)c1 [compound 804]
6,1.09*,O=C(O)CCc1cccc(Nc2ncc(Cl)c(NC3CC3)n2)c1 [compound 795]
7,1*,CC(=O)Nc1ccc(Nc2ncc(Cl)c(NC3CC3)n2)cc1O [compound 822]

# Same assay, conditions: method **: HPLC reversed-phase C 18, 43° C., 0.1% aqueous phosphoric acid and acetonitrile, linear gradient 10% to 95% acetonitrile
row,logP,Compound
1,1.64**,CC(=O)NS(=O)(=O)c1ccc(Nc2ncc(Cl)c(NC3CC3)n2)cc1 [Example 24]
2,1.59**,O=C1CCCN1c1ccc(Nc2ncc(Br)c(NCC3CC3)n2)cc1 [compound 457]
3,2.63**,NS(=O)(=O)c1cc(Nc2ncc(Cl)c(NCC3CC3)n2)cc(C(F)(F)F)c1 [Example 18]
4,1.87**,CC(=O)c1cccc(Nc2ncc(Cl)c(NCC3CC3)n2)c1 [compound 13]
5,1.45**,Cl.Fc1cnc(Nc2ccccc2)nc1NC1CC1 [compound 41]
6,1.84**,CC(=O)c1cccc(Nc2ncc(Cl)c(NC3CC3)n2)c1 [Example 5]

# Same assay, conditions: method **: HPLC, reversed-phase C 18, 43° C., mobile phase 0.1% aqueous phosphoric acid and acetonitrile, linear gradient from 10% to 95% acetonitrile
row,logP,Compound
1,4.15**,COc1ccc(CN(c2nc(Nc3ccccc3)ncc2Cl)C2CC2)cc1 [compound 1025]

# Same assay, conditions: method *: HPLC reversed-phase C18, 40° C., 0.1% aqueous formic acid and acetonitrile, linear gradient 10% to 95% acetonitrile
row,logP,Compound
1,1.8*,COC(=S)Nc1ccc(Nc2ncc(Cl)c(NC3CC3)n2)cc1 [compound 365]
2,2.58*,CSc1cc(Nc2ncc(Br)c(NCC3CC3)n2)ccc1C [compound 459]
3,1.92*,CC(=O)c1cc(Nc2ncc(Br)c(NCC3CC3)n2)ccc1O [compound 463]
4,1.66*;,O=C1CCCN1c1ccc(Nc2ncc(Br)c(NCC3CC3)n2)cc1 [compound 457]
5,1.83*,CCOC(=O)Nc1cccc(Nc2ncc(Br)c(NC3CC3)n2)c1 [compound 385]
6,1.99*,CC(=O)c1ccc(Nc2ncc(Cl)c(NC3CC3)n2)cc1 [compound 44]
7,1.79*,CCCNS(=O)(=O)Cc1ccc(Nc2ncc(Cl)c(NC3CC3)n2)cc1 [compound 371]
8,1.62*,O=C(Nc1cccc(Nc2ncc(Cl)c(NC3CC3)n2)c1)C1CC1 [Example 84]
9,1.74*,CC(C)(CF)C(=O)Nc1ccc(Nc2ncc(Cl)c(NC3CC3)n2)cc1 [Example 67]
10,2.44*,N#Cc1cnc(Nc2ccccc2)nc1NC1CC1 [compound 40]
11,2.33*,N#Cc1ccc(Nc2ncc(Cl)c(NC3CC3)n2)cc1 [compound 374]
12,1.81*,CC(C)(C)C(=O)Nc1ccc(Nc2ncc(Cl)c(NC3CC3)n2)cc1 [Example 72]
13,3.62*,O=C(c1ccc(Nc2ncc(Cl)c(NC3CC3)n2)cc1)C(F)(F)F [Example 73]
14,1.73*,COC(=O)Nc1cccc(Nc2ncc(Br)c(NCC3CC3)n2)c1 [compound 458]

# Same assay, conditions: method *: HPLC reversed-phase C 18, temperature 40° C.; mobile phase 0.1% aqueous formic acid and acetonitrile; linear gradient 10% to 95% acetonitrile
row,logP,Compound
1,2.73*,COc1cccc(Nc2ncc(C(F)(F)F)c(NC3CC3)n2)c1 [compound 640]
2,2.39*,COC(=O)Cc1cccc(Nc2ncc(C#N)c(NC3CC3)n2)c1 [compound 606]
3,1.85*,COc1cc(Nc2ncc(C(F)(F)F)c(NC3CC3)n2)ccc1NC(C)=O [compound 639]

# Same assay, conditions: method *: HPLC, reversed-phase C 18, 40° C., mobile phase 0.1% aqueous formic acid and acetonitrile, linear gradient from 10% to 95% acetonitrile
row,logP,Compound
1,1.77*,COCC1CCCN1C(=O)c1cccc(Nc2ncc(Cl)c(NC3CC3)n2)c1 (stereo not shown) [compound 1061]
2,2.07*,CCNC(=O)c1cccc(Nc2ncc(C(F)(F)F)c(NC3CC3)n2)c1 [compound 1031]
3,2.46*,COC(=O)c1cc(Nc2ncc(Cl)c(NC3CC3)n2)cc(C(=O)OC)c1 [compound 1001]
4,1.81*,COC(=O)c1cc(Nc2ncc(Cl)c(NC3CC3)n2)ccc1O [compound 993]

# Same assay, conditions: pH 2.3; read-out: logP (pH2.3)
row,chromatographic logP,Compound
1,1.37,"NS(=O)(=O)c1cccc(Nc2ncc(Cl)c(NC3CC3)n2)c1 [Example 15, 3-{[5-Chloro-4-(cyclopropylamino)pyrimidin-2-yl]amino}benzenesulphonamide]"

# Same assay, conditions: reversed-phase C18 HPLC column; method **: HPLC reversed-phase C 18, 43° C., 0.1% aqueous phosphoric acid and acetonitrile, linear gradient 10% to 95% acetonitrile; read-out: logP
row,chromatographic logP,Compound
1,1.37,"NS(=O)(=O)c1cccc(Nc2ncc(Cl)c(NC3CC3)n2)c1 [Example 15, 3-{[5-Chloro-4-(cyclopropylamino)pyrimidin-2-yl]amino}benzenesulphonamide]"
